Experimental data published in paper PMC10544575, “Inhibitory mechanism of vortioxetine on CYP450 enzymes in human and rat liver microsomes” (Frontiers in Pharmacology, 2023).
Like-named read-outs stand apart in the source and are kept apart here.

Key:
Type in all cases: in vitro ADME
CYP3A [1] = experiment: IC50-shift experiment, CYP3A in RLMs; details: rat, rat liver microsomes, probe midazolam; for IC50 at 30 min: midazolam 3.5 μM
CYP3A [2] = experiment: IC50 of vortioxetine on CYP3A (midazolam) in RLMs; details: rat, rat liver microsomes, probe midazolam
Protocol: (§1) The components of the incubation system were as follows: 0.20 mg/mL HLMs or 0.20 mg/mL RLMs, 0.1 M Tris-HCl, vortioxetine, and the probe substrates of each enzyme. In the study of Km’s (Michaelis–Menten constant) experiment, midazolam (1, 2, 5, 10, 20, 50 and 100 μM in HLMs and RLMs) corresponded to CYP3A4/3A; bupropion (10, 20, 50, 100, 200, 500, 1,000 and 2000 μM in HLMs; 1, 2, 5, 10, 20, 50, 100 and 200 μM in RLMs) corresponded to CYP2B6/2B; amodiaquine (5, 10, 20, 50, 100 and 200 μM in HLMs; 10, 20, 50, 100, 200, 500 μM in RLMs) corresponded to CYP2C8/CYP2C-1; losartan (1, 2, 5, 10, 20, 50, 100, 200 μM in HLMs; 10, 20, 50, 100, 200, 500 and 1,000 μM in RLMs) corresponded to CYP2C9/CYP2C-2; mephenytoin (20, 50, 100, 200, 500 and 1,000 μM in HLMs; 5, 10, 20, 50, 100, 200, 500 and 1,000 μM in RLMs) corresponded to CYP2C19/CYP2C-3; and dextromethorphan (1, 2, 5, 10, 20, 50 and 100 μM in HLMs and RLMs) corresponded to CYP2D6/CYP2D. […]
(§2) All experiments results were detected by UPLC-MS/MS, which equipped with a Waters Acquity UPLC system (Milford, MA, United States) and a Waters Xevo TQ-S triple quadrupole tandem mass spectrometer with an electrospray ionization source (Milford, MA, United States). […]
(§3) IC50 values and enzyme kinetic parameters were calculated by Graphpad Prism 6.0 (GraphPad software Inc., CA, United States). […] Data for each experiment were expressed as mean ± SD (n = 3).

CYP2C-3 = experiment: IC50 of vortioxetine on CYP2C-3 (mephenytoin) in RLMs; details: rat, rat liver microsomes, probe mephenytoin
Protocol: as §1, §2, §3

CYP2B6 = biological target: T1, CYP2B6 (Homo sapiens, UniProt P20813); experiment: IC50-shift experiment, CYP2B6 in HLMs; set-up: 0.20 mg/mL HLMs or 0.20 mg/mL RLMs; from tissue; host or cells: human liver microsomes; details: for IC50: bupropion 40 μM
T1 sequence (P20813 1-491): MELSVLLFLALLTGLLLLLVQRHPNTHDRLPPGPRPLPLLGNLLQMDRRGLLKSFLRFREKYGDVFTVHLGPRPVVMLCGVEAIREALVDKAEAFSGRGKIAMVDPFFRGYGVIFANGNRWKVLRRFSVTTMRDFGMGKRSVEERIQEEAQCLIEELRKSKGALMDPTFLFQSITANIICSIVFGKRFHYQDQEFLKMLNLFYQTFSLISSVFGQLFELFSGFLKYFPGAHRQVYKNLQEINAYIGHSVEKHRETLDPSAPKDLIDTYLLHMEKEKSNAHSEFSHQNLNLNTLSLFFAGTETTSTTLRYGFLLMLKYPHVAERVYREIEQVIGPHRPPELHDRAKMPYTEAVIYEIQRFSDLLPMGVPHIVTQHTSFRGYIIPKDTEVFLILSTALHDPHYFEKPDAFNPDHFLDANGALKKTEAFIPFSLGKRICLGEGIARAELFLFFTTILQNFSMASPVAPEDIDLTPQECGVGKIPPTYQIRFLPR
Protocol: as §1, with “CYP2D6/CYP2D. After 5.0 min of preincubation in the shaking water bath, the reaction was started with the addition of 1.0 mM NADPH. The incubated temperature at 37°C for 30 min. After the incubation, the enzyme reaction was stopped by cooling at −80°C, and 200 μL of acetonitrile and 20 μL of internal standard diazepam (200 ng/mL) were added for protein precipitation.” for “CYP2D6/CYP2D.”
IC50-shift was used to investigate whether the drug produced time-dependent inhibition (TDI) of the enzyme. […] During the experiment, the individual substrates midazolam (4 μM), bupropion (40 μM), amodiaquine (3 μM), losartan (8 μM), mephenytoin (90 μM), and dextromethorphan (10 μM) were determined with vortioxetine IC50-shift in HLMs. […]
as §2, §3

[3] = 30 min preincubation with 1.0 mM NADPH
[4] = 30 min preincubation without NADPH
[5] = inhibitory effect (strength judged by IC50), RLMs

`Cc1ccc(Sc2ccccc2N2CCNCC2)c(C)c1` [vortioxetine] was tested. Which IC50 at 30 min (CYP3A [1]; [3]) did it give?
Its IC50 at 30 min is 16.4 µM.

What about the IC50 at 30 min (CYP3A [1]; [4]) of the same compound?
Its IC50 at 30 min is 20.9 µM.

And the IC50 shift at 30 min (CYP3A [1]; ratio IC50 (−) NADPH to IC50 (+) NADPH, read-out: IC50 fold shift)?
The IC50 shift at 30 min was 1.28.

What about the IC50 at 30 min (CYP3A [2]; RLMs 0.20 mg/mL, midazolam at Km, 37°C, 30 min, read-out: IC50) of the same compound?
The IC50 at 30 min was 16.4 µM.

And the IC50 at 30 min (CYP3A [2]; [5])?
The IC50 at 30 min was greater than 10 µM.

What about the IC50 at 30 min (CYP2C-3; RLMs 0.20 mg/mL, mephenytoin at Km, 37°C, 30 min, read-out: IC50) of the same compound?
The IC50 at 30 min was 20.3 µM.

And the IC50 at 30 min (CYP2C-3; [5])?
Its IC50 at 30 min is greater than 10 µM.

What about the IC50 (CYP2B6; [3]) of the same compound?
Its IC50 is 6.69 µM.

What about the IC50 (CYP2B6; [4]) of the same compound?
The IC50 was 5.38 µM.

What about the IC50 shift at 30 min (CYP2B6; human, human liver microsomes, probe bupropion (40 μM), ratio IC50 (−) NADPH to IC50 (+) NADPH, read-out: IC50 fold shift) of the same compound?
Its IC50 shift at 30 min is 0.8.
